Columns and labels:
Panc-1 tumors = assay: Panc-1 orthotopic tumor growth and metastasis in scid mice; type: in vivo
Method: (§1) FIGS. 6A-6F show the effect of cromolyn on Panc-1 tumor growth and metastasis in vivo. Panc-1 cells stably expressing the firefly luciferase gene were injected orthotopically into 4-week-old male CB 17 scid mice. […] Mice were divided into four groups of five mice each with an equivalent mean tumor size between groups. […] One group was treated with water (control), one group received gemcitabine bi-weekly (125 mg per kg body weight bi-weekly by intraperitoneal injection), one group was administered cromolyn daily (5 mg per kg body weight daily by intraperitoneal injection), and the final group was given the combination of cromolyn and gemcitabine. All groups were treated for six weeks. Bioluminescent imaging was done weekly to assess tumor growth. […] Means and 95% confidence intervals from two independent experiments are shown (n=20). Two-tailed two-sample (unpaired) Student's t-tests were used to determine P values. The anti-tumorigenic capability of the drug cromolyn was assessed in 4-week-old male CB 17 scid mice (n=20) carrying orthopic tumors of BxPC-3, MPanc96, and Panc-1 cells stably expressing a Lenti-luc reporter. All mouse experiments were reviewed and approved by the Institutional Animal Care and Use Committee of UT MD Anderson Cancer Center. All mice were maintained in a sterile environment. Cages, bedding, food, and water were all autoclaved. All mice were maintained on a daily 12-hour light/12-hour dark cycle, according to the institutional animal welfare guidelines. BxPC-3, MPanc96, and Pane-1 cells carrying the Lenti-luc reporter gene were grown to 80% confluence, harvested by incubation with trypsin-EDTA, washed twice in PBS, and resuspended to a final concentration of 4.0×10^6 cells/mL. Each mouse (n=20 mice per cell line) was injected (into the pancreas) with cell suspensions (50 μL). Bioluminescent imaging to determine tumor volume was performed 1 week after injection because the tumors became established within this amount of time. This initial tumor volume was used to divide the mice into four groups of five mice each, such that the mean tumor size was equal between groups (FIGS. 4A, 5A, and 6A). To allow enough time to observe differences among treatment groups, the mice were followed for the next 5 weeks. One group of mice was then treated biweekly with a sub-maximal concentration of gemcitabine (125 mg per kg body weight by i.p. injection). A second group was treated with a daily injection of cromolyn (5 mg per kg body weight by i.p. injection). A third group was treated with both bi-weekly gemcitabine and daily cromolyn. The control group was treated daily with vehicle. Treatments were continued for 5 weeks, and the effects on the tumor burden and metastasis were analyzed by weekly bioluminescence imaging (FIGS. 4B, 5B, and 6B). At the end of the experiment the mice were anesthetized with 1.5% isofluorane/air mixture and killed by cervical dislocation. Bioluminescence imaging was conducted using a cryogenically cooled IVIS 100 imaging system coupled to a data acquisition computer running Living Image software (Xenogen Corp., Alameda, Calif.). Before imaging, mice were placed in an acrylic chamber, anesthetized with 1.5% isofluorane/air mixture, and injected i.p. with 15 mg/mL of luciferin potassium salt in PBS at a dose of 150 mg per kg body weight. A digital grey scale image of each mouse was acquired, followed by acquisition and overlay of a pseudocolor image representing the spatial distribution of detected photons emerging from active luciferase within the mouse. Tumor volume was quantified as the sum of all detected photons within the region of the tumor per second. At the end of experiment, the mice were killed, and tumors were surgically removed and weighed. After the primary tumors were removed, cancer cell dissemination and metastasis was visualized using IVIS imaging, and metastatic colonies were counted. […]

MPanc-96 tumors = assay: MPanc-96 orthotopic tumor growth and metastasis in scid mice; type: in vivo; conditions: MPanc-96 model; for lung metastasis, mean: control 5.9×10^7; for liver metastasis, mean: control 9.4×10^8; for tumor burden, mean: gemcitabine 125 mg/kg bi-weekly i.p., cromolyn 5 mg/kg daily i.p., end of six weeks, control 1.1×10^10
Method: as §1, with “FIGS. 5A-5F” for “FIGS. 6A-6F”, “on MPanc-96” for “on Panc-1”, “vivo. MPanc-96” for “vivo. Panc-1”

Compound	body weight, difference versus control (Panc-1 tumors; Panc-1 model)	liver or lung metastasis (Panc-1 tumors; Panc-1 model)	body weight at the end of the experiment, mean (Panc-1 tumors; Panc-1 model, control 32.0 g)	liver metastasis, difference versus control (MPanc-96 tumors)	lung metastasis, difference versus control (MPanc-96 tumors)	tumor burden, difference versus control (MPanc-96 tumors)	lung metastasis, mean (MPanc-96 tumors)	liver metastasis, mean (MPanc-96 tumors)	tumor burden, mean (MPanc-96 tumors)	tumor development (Panc-1 tumors; Panc-1 model (no S100P), cromolyn 5 mg/kg daily i.p.)	effect on body weight (in words) (Panc-1 tumors; Panc-1 model, up to 6 weeks)	effect on body weight (in words) (MPanc-96 tumors; up to 6 weeks)
Nc1ccn([C@@H]2O[C@H](CO)[C@@H](O)C2(F)F)c(=O)n1 [gemcitabine]	4.8 g	neither cromolyn nor gemcitabine nor the combination reduced	27.2 g	8.1×10^8 photons/sec	5.4×10^7 photons/sec	6.9×10^9 photons/sec	5.0×10^6 photons/sec	1.2×10^8 photons/sec	4.1×10^9 photons/sec	–	–	–
O=C(O)c1cc(=O)c2c(OCC(O)COc3cccc4oc(C(=O)O)cc(=O)c34)cccc2o1 [cromolyn, disodium 1,3-bis[(2′-carboxylatochromon-5′-yl)oxy]-2-hydroxypropane]	–	neither cromolyn nor gemcitabine nor the combination reduced	–	7.2×10^8 photons/sec	5.6×10^7 photons/sec	6.2×10^9 photons/sec	3.2×10^6 photons/sec	2.2×10^8 photons/sec	4.8×10^9 photons/sec	did not reduce	no effect	no effect

Reference: patent publication US20110195924A1, “Methods of Inhibiting the Interaction Between S100P and the Receptor for Advanced Glycation End-Products” (priority 2008, published 2011)
